Tests used:
AR-v7 in LNCaP cells = target: T1, AR-v7 in LNCaP cells (Homo sapiens, UniProt P10275); test: PSA-luc reporter assay in LNCaP cells transiently transfected with pIRES-AR-v7; settings: 24 h
T1 sequence (P10275 1-644 isoform P10275-3): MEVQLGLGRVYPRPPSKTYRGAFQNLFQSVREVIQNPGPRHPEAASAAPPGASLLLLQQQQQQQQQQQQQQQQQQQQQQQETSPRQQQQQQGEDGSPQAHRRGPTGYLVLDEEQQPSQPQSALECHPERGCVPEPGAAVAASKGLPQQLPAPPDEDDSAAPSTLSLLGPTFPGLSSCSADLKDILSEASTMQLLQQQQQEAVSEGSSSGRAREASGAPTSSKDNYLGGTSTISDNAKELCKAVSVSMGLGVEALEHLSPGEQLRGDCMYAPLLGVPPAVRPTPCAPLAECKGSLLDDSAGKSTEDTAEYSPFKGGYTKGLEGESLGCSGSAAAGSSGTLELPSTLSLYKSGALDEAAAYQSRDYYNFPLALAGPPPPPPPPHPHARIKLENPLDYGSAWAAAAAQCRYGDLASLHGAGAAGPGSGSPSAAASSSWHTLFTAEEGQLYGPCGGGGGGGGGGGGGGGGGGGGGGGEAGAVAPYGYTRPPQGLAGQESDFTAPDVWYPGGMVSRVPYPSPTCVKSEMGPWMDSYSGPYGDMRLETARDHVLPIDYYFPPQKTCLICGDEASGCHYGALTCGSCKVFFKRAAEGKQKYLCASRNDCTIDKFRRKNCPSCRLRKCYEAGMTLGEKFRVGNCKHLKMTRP
Description: NT, LNCaP cells were transiently transfected with pIRES vector, PSA-luc and pRL-TK. […] Cells were then transiently transfected with PSA-Luc and pRL-TK and exposed to DMSO or compounds for 24 h, in triplicate.

[1] = MTT assay (cytotoxicity), DU145 cells; format: cell-based; settings: human, DU145 cells, Table 4.1
Procedure, shortened: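 Cells grown in RPMI 1640 with 10% FBS were seeded at 6-7×10^3 cells/well and left overnight. They were then exposed to compound or DMSO vehicle for 72 h in fresh medium. Viability was measured by MTT, in triplicate, with each experiment repeated at least twice.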

[2] = MTT assay (cytotoxicity), H1975 cells; format: cell-based; settings: human, 72 h treatment, Table 6.1
Description: (§1) MTT assays: LNCaP, 22Rv1, Du145, H1975, A549, MB231 and MCF-7 cells are maintained in RPMI 1640 supplemented with 10% FBS. Cells were seeded at a density of 6-7×10^3 cells per well in 96-well plates. After overnight incubation, cells in fresh RPMI 1640 supplemented with 10% FBS were exposed to DMSO vehicle control or test compounds at designated concentrations for 72 h. Viable cells were evaluated by MTT assays. Experiments were performed in triplicate and repeated at least twice.

[3] = MTT assay (cytotoxicity), A549 cells; format: cell-based; settings: human, 72 h treatment, Table 6.1
Description: as §1

[4] = MTT assay (cytotoxicity), MB231 cells; format: cell-based; settings: human, 72 h treatment, Table 6.1
Description: as §1

[5] = MTT assay (cytotoxicity), MCF-7 cells; format: cell-based; settings: human, 72 h treatment, Table 6.1
Description: as §1

[6] = MTT assay (72 h), liver hepatocellular carcinoma cell line of Table 6.1; format: cell-based; settings: human, HepG2 cells (liver hepatocellular carcinoma), 72 h treatment, read-out: Cytotoxicity (IC50, μM) HepG2

Row | melting point | activity in LNCaP cells with forced expression of AR-v7 (PSA-luc) (AR-v7 in LNCaP cells) | Compound | IC50 at 72 h [1] | IC50 at 72 h [2] | IC50 at 72 h [3] | IC50 at 72 h [4] | IC50 at 72 h [5] | IC50 at 72 h [6]
1 | 213 to 215 °C | remain active | O=C(N/C=C/c1cccc(C(F)(F)F)c1)Nc1ccncn1 [Compound 562] | – | – | – | – | – | –
2 | – | – | O=C(Nc1ccc(Br)nc1)Nc1cc(C(F)(F)F)cc(C(F)(F)F)c1 [Compound 566] | 1.7 µM | – | – | – | – | –
3 | – | remain active | O=C(Nc1cccc(C(F)(F)F)c1)Nc1ccc(NC(=O)c2ccccc2F)c(C(F)(F)F)c1 [Compound 746] | – | 2.5 µM | 2.4 µM | 4.6 µM | 2.5 µM | 1.2 µM
